Here are results for nine compounds from patent US20140364428A1, “5-(3-AMINOPHENYL)-5-ALKYL-5,6-DIHYDRO-2H-[1,4]OXAZIN-3-AMINE DERIVATIVES” (Janssen Pharmaceutica NV, priority 2011, published 2014).

As usually defined, the melting point is the temperature, or range, at which the solid turns liquid.

The subject of series [1] is Abeta 1-42 produced and secreted into the medium of human neuroblastoma SKNBE2 cells. In words: Cellular αLisa assay in SKNBE2 cells, Abeta 1-42. The series is classed as cell-based. The conditions noted are these: SKNBE2 cells expressing wild type hAPP695, incubated for 18 hours, read-out: Cellular αLisa assay in SKNBE2 cells Abeta 42 pIC50 (converted). How it is done:
(§1) In two αLisa assays the levels of Abeta total and Abeta 1-42 produced and secreted into the medium of human neuroblastoma SKNBE2 cells are quantified. The assay is based on the human neuroblastoma SKNBE2 expressing the wild type Amyloid Precursor Protein (hAPP695). The compounds are diluted and added to these cells, incubated for 18 hours and then measurements of Abeta 1-42 and Abeta total are taken. Abeta total and Abeta 1-42 are measured by sandwich αLisa. αLisa is a sandwich assay using biotinylated antibody AbN/25 attached to streptavidin coated beads and antibody Ab4G8 or cAb42/26 conjugated acceptor beads for the detection of Abeta total and Abeta 1-42 respectively. In the presence of Abeta total or Abeta 1-42, the beads come into close proximity. The excitation of the donor beads provokes the release of singlet oxygen molecules that trigger a cascade of energy transfer in the acceptor beads, resulting in light emission. Light emission is measured after 1 hour incubation (excitation at […] and emission at 615 nm).
(§2) A best-fit curve is fitted by a minimum sum of squares method to the plot of % Controlmin versus compound concentration. From this an IC50 value (inhibitory concentration causing 50% inhibition of activity) can be obtained.

The next series concerns the target T1, BACE1 (Homo sapiens, UniProt P56817).
T1 construct: recombinant BACE1 protein in a final concentration of 1 mg/ml
Kind of series: Biochemical FRET based assay. The conditions noted are these: recombinant BACE1 protein, APP derived 13 amino acids peptide substrate ('Swedish' mutation), 120 minutes at room temperature, pH 5.0; read-out: Biochemical FRET based assay pIC50 (converted).
Description: This assay is a Fluorescence Resonance Energy Transfer Assay (FRET) based assay. The substrate for this assay is an APP derived 13 amino acids peptide that contains the ‘Swedish’ Lys-Met/Asn-Leu mutation of the amyloid precursor protein (APP) beta-secretase cleavage site. This substrate also contains two fluorophores: (7-methoxycoumarin-4-yl) acetic acid (Mca) is a fluorescent donor with excitation wavelength at 320 nm and emission at 405 nm and 2,4-Dinitrophenyl (Dnp) is a proprietary quencher acceptor. […] Upon cleavage by BACE1, the fluorophore Mca is separated from the quenching group Dnp, restoring the full fluorescence yield of the donor. The increase in fluorescence is linearly related to the rate of proteolysis.
Briefly in a 384-well format recombinant BACE1 protein in a final concentration of 1 mg/ml is incubated for 120 minutes at room temperature with […] in incubation buffer (40 mM Citrate buffer pH 5.0, 0.04% PEG, 4% DMSO) in the absence or presence of compound. Next the amount of proteolysis is directly measured by fluorescence measurement at T=0 and T=120 (excitation at 320 nm and emission at 405 nm). Results are expressed in RFU (Relative Fluorescence Units), as difference between T120 and TO.
as §2

Series [2] deals with Abeta total produced and secreted into the medium of human neuroblastoma SKNBE2 cells. Kind of series: Cellular αLisa assay in SKNBE2 cells, Abeta total. The conditions noted are these: SKNBE2 cells expressing wild type hAPP695, incubated for 18 hours, read-out: Cellular αLisa assay in SKNBE2 cells Abetatotal pIC50 (converted). The format is cell-based. How it is done:
as §1, §2

T1 sequence (P56817 46-501): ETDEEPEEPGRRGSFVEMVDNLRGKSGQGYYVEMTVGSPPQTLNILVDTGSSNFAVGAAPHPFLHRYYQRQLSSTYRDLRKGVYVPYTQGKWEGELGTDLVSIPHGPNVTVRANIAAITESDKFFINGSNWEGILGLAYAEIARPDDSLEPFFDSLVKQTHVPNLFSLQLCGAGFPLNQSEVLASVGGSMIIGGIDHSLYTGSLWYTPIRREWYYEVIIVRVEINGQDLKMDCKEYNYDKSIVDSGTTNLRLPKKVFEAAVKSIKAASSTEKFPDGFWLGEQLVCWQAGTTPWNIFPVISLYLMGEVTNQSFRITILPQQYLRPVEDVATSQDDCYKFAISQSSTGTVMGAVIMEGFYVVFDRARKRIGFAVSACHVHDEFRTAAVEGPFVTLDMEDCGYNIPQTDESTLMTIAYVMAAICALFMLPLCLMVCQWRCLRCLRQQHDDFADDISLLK

In the case of `COc1cccnc1Nc1ccc(F)c([C@@]2(C)N=C(N)COC2C(F)F)c1` (single isomer, unassigned) [Compound 4, (5R,6R*)-6-(Difluoromethyl)-5-{2-fluoro-5-[(3-methoxypyridin-2-yl)amino]phenyl}-5-methyl-5,6-dihydro-2H-1,4-oxazin-3-amine], the melting point is 136.93 °C. For the same compound, the IC50 in series [1] was 9.12 nM. In addition, on BACE1, the IC50 is 58.9 nM. Besides, in series [2], the IC50 is 10.5 nM.

As to `COc1cccnc1Nc1cccc([C@@]2(C3CC3)N=C(N)CO[C@@]2(F)C(F)(F)F)c1` [Compound 1, (5R,6S)-5-cyclopropyl-6-fluoro-5-{3-[(3-methoxypyridin-2-yl)amino]phenyl}-6-(trifluoromethyl)-5,6-dihydro-2H-1,4-oxazin-3-amine], the results for the IC50 (in series [1]; at BACE1; in series [2]) were 60.3 nM, 26.3 nM and 53.7 nM, respectively.

Take `COc1cccnc1Nc1ccc(F)c([C@@]2(C)N=C(N)CO[C@@H]2F)c1` [Compound 2, (5R,6R)-6-fluoro-5-{2-fluoro-5-[(3-methoxypyridin-2-yl)amino]phenyl}-5-methyl-5,6-dihydro-2H-1,4-oxazin-3-amine]: the IC50 was 24 nM in series [1], 162 nM at BACE1 and 19.5 nM in series [2].

`COc1cccnc1Nc1ccc(F)c([C@@]2(C)N=C(N)COC2=C(F)F)c1` [Compound 3, (5R)-6-(difluoromethylidene)-5-{2-fluoro-5-[(3-methoxyPyridin-2-yl)amino]phenyl}-5-methyl-5,6-dihydro-2H-1,4-oxazin-3-amine]: the IC50 in series [1] was 105 nM; on BACE1 it was 759 nM; in series [2] it was 89.1 nM.

Regarding `C[C@]1(c2cc(Nc3ncccn3)ccc2F)N=C(N)CO[C@@H]1F` [Compound 5, (5R,6R)-6-fluoro-5-[2-fluoro-5-(pyrimidin-2-ylamino)phenyl]-5-methyl-5,6-dihydro-2H-1,4-oxazin-3-amine], the values for the IC50 (in series [1]; at BACE1; in series [2]) were 1260 nM, 1950 nM and 1100 nM, respectively.

`COc1cccnc1Nc1ccc(F)c([C@@]2(C)N=C(N)CO[C@H]2C(F)(F)F)c1` [Compound 6, (5R,6R)-5-{2-fluoro-5-[(3-methoxypyridin-2-yl)amino]phenyl}-5-methyl-6-(trifluoromethyl)-5,6-dihydro-2H-1,4-oxazin-3-amine]: the IC50 is 21.4 nM in series [1], 138 nM at BACE1 and 20.9 nM in series [2].

In the case of `C[C@]1(c2cc(Nc3ncccn3)ccc2F)N=C(N)CO[C@H]1C(F)(F)F` [Compound 7, (5R,6R)-5-[2-fluoro-5-(pyrimidin-2-ylamino)phenyl]-5-methyl-6-(trifluoromethyl)-5,6-dihydro-2H-1,4-oxazin-3-amine], the IC50 in series [1] is 759 nM; at BACE1, 3720 nM; in series [2], 832 nM.

`COc1nccnc1Nc1ccc(F)c([C@@]2(C)N=C(N)CO[C@@H]2F)c1` [Compound 8, (5R,6R)-6-fluoro-5-{2-fluoro-5-[(3-methoxypyrazin-2-yl)amino]phenyl}-5-methyl-5,6-dihydro-2H-1,4-oxazin-3-amine]: the IC50 is 129 nM in series [1], 309 nM on BACE1 and 138 nM in series [2].

Consider `CC1(c2cc(Nc3ncccc3C#N)ccc2F)N=C(N)COC1F` (stereo not shown) [Compound 9], for which the IC50 is 129 nM in series [1], 224 nM at BACE1 and 87.1 nM in series [2].
